Laboratory results from patent publication US20220202739A1, “ENDOCANNABINOID MIMETIC AND ANTI-INFLAMMATORY COMPOUND CONTAINING COMPOSITIONS, METHODS OF PREPARATION AND USES THEREOF” (priority 2019, published 2022).

What follows are compounds tested on JUN (assay: Gene expression custom microarray, pooled keratinocyte line (Example 3): JUN). Conditions: pooled keratinocytes, 20 ppm, 24 hr.
Format: cell-based, human
Protocol: Cell cultures: Received and began culture of pooled keratinocyte line from Promocell (C-12006; Lot #448Z026). Cells were seeded into a 75 cm2 flask and 2 6 well dishes for expansion and exposure per manufacturer's protocol using Keratinocyte Growth Medium (C2011B), Keratinocyte Supplement Mix (C39016) and CaCl (C34005). 2 ml of prepared solution were added to each of the 6 wells and 7 ml was added to the 75 cm2 flask.
Experimental phase: When the appropriate quantity of cells were grown, they were detached as described above, but at the final step were seeded into each well of one or more 6 well dishes. Each well received 2 ml of the cells suspended in suspension so they were seeded equally. The dishes were returned to the incubator until 85-95% confluency is reached.
It was at this stage that all wells were rinsed in PBS after aspirating the growth media. The compound(s) to be tested were previously mixed into a suitable solvent (e.g., DMSO or ethanol) that can be diluted to the desired concentration of test compound (10 μl) in the culture wells without exceeding maximum solvent concentrations and adversely effecting cell viability, and mixed with Basal Keratinocyte Media. NOTE: Standard maximum levels of solvent are 0.1% for DMSO and 0.5% for ETOH. The concentration for each tested compound/natural extract is generally listed in the left-hand column of Table 4. For certain compositions (e.g., compositions 15 and 16), other concentrations were used and are noted in the body of Table 4.
Every 2 wells on the 6 well plate served as a biological replicate for the purposes of RNA isolation and genetic expression evaluations making each 6 well dish an n=3 for the test compound contained in the media. […]
At the end of the 24 hr time period, the plates were removed from the incubator, the test media aspirated, and the cells rinsed with PBS. […] Allow 1 minute for saturation of the membrane and then centrifuge for 2 minutes to complete the RNA elution. • Quantify the quantity of RNA and store at −20 C° until use (no more than 1 month) […]

Compound | ↓JUN gene expression, fold increase or decrease vs untreated cells
C=C(C)[C@@H]1CCC(C)=C[C@H]1c1c(O)cc(CCCCC)cc1O [CBD, cannabidiol, reference compound] | 2.7 fold
CCCCCCCCCCCCCCCC(=O)NCCO [N-palmitoylethanolamide] | −1.9 fold
CC(C)[C@]12O[C@H]1[C@@H]1O[C@]13[C@]1(O[C@H]1C[C@H]1C4=C(CC[C@@]13C)C(=O)OC4)[C@@H]2O [Triptolide] | −4.7 fold
